Test results from ChEMBL document CHEMBL1201862, “PubChem BioAssay data set” (2004).
Blank lines part the entries; values can stand above or below the compound they belong to. The source made the active and inactive calls. Cut-off read from the data, not from the text of the source, for most assays here: actives have a measured IC50 and inactives only a lower limit.

Columns and labels:
Assay type in all cases: functional
[1] = target: G-protein coupled receptor 55 (Homo sapiens, UniProt Q9Y2T6); experiment: GPR55 antagonists, SAR follow-up, counter-screen for GPR35 antagonist project, imaging, image-based (AID 2397)
[2] = target: T1, Tyrosine-protein phosphatase non-receptor type 22 (Homo sapiens, UniProt Q9Y2R2); experiment: LYP (PTPN22) phosphatase inhibitor potency, SAR follow-up, biochemical, pCAP fluorogenic substrate, fluorescence, set 3 (AID 449727)
T1 sequence (Q9Y2R2 whole entry): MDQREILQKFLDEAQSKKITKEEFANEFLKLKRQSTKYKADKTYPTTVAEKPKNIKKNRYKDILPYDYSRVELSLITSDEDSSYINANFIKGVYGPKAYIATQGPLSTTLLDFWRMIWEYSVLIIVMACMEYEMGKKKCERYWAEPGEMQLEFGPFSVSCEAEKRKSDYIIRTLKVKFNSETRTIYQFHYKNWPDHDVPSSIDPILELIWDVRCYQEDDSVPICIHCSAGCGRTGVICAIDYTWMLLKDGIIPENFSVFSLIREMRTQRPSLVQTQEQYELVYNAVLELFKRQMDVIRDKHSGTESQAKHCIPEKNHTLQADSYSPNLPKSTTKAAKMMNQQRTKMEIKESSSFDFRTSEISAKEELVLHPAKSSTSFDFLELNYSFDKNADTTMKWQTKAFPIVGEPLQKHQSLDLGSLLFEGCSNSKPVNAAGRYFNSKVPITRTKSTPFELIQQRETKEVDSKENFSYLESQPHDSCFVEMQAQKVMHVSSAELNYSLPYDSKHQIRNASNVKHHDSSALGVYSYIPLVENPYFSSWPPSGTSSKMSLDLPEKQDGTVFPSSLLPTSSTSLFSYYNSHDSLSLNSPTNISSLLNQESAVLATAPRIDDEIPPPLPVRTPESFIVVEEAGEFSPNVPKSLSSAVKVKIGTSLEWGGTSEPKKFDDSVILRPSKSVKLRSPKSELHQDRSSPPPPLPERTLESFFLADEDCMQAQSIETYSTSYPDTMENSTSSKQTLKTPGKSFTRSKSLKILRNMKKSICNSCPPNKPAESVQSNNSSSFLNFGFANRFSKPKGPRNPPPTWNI

[3] = target: T2, Tyrosine-protein phosphatase non-receptor type 7 (Homo sapiens, UniProt P35236); experiment: HePTP (PTPN7) phosphatase inhibitor potency, SAR follow-up, biochemical, set 2 (AID 449736)
T2 sequence (P35236 whole entry): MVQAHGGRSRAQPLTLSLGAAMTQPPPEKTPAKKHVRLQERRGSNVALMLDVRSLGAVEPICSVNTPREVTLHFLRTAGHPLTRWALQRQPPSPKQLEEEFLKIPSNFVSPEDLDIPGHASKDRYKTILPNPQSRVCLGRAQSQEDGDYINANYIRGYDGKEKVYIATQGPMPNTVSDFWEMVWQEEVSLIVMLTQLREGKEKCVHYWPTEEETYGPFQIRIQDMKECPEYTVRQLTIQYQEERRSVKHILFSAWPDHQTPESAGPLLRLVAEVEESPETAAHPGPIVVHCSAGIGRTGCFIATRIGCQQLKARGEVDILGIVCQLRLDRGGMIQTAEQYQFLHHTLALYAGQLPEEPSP

[4] = target: T1, Tyrosine-protein phosphatase non-receptor type 22; experiment: SAR LYP1 Fluorescent Assay using OMFP substrate for In Vitro dose response studies - Set 2. [Related pubchem assays (depositor defined):AID1779, AID1784, AID2140, AID449726, AID488869]
[5] = target: T1, Tyrosine-protein phosphatase non-receptor type 22; experiment: SAR LYP1 Fluorescent Assay using pCAP substrate for In Vitro dose response studies - Set 2. [Related pubchem assays (depositor defined):AID1779, AID1784, AID2135, AID449727]
[6] = target: Tyrosine-protein phosphatase non-receptor type 12 (Homo sapiens, UniProt Q05209); experiment: SAR Selectivity Analysis of small molecule inhibitors of PEST using pCAP in a fluorescence assay. [Related pubchem assays (depositor defined):AID1779, AID1784, AID2135]
[7] = target: T1, Tyrosine-protein phosphatase non-receptor type 22; experiment: SAR LYP1 Fluorescent Assay using OMFP substrate for In Vitro dose response studies - Set 3. [Related pubchem assays (depositor defined):AID1779, AID1784, AID2140, AID2686]
[8] = target: Mu-type opioid receptor (Homo sapiens, UniProt P35372); experiment: SAR Analysis of Agonists of the MOR Receptor using an Image-Based Assay - Set 3. [Related pubchem assays (depositor defined):AID1777, AID1785, AID1786, AID1966, AID2133, AID2136, AID2284, AID2285, AID2352]
[9] = target: T3, Kappa-type opioid receptor (Homo sapiens, UniProt P41145); experiment: SAR analysis of small molecule agonists of the kappa opioid receptor via a luminescent beta-arrestin assay - Set 3. [Related pubchem assays (depositor defined):AID1777, AID1785, AID1786, AID1966, AID2133, AID2136, AID2284, AID2500]
[10] = target: T3, Kappa-type opioid receptor; experiment: KOR agonist analogs, arrestin-GFP redistribution, SAR follow-up, imaging, image-based, set 3 (AID 488833)
[11] = target: Delta-type opioid receptor (Homo sapiens, UniProt P41143); experiment: SAR Analysis of Agonists of the DOR Receptor using an Image-Based Assay - Set 3. [Related pubchem assays (depositor defined):AID1777, AID1786]
[12] = target: Intestinal-type alkaline phosphatase (Mus musculus, UniProt P24822); experiment: PubChem AID 488785
[13] = tested on: Vero; experiment: Vero cell cytotoxicity, cytotoxicity control for flavivirus capping enzyme inhibitors (AID 588742); details: Chlorocebus sabaeus
[14] = target: Intestinal-type alkaline phosphatase (Homo sapiens, UniProt P09923); experiment: inhibition of human intestinal alkaline phosphatase – biochemical, dose response (AID 488876)
[15] = target: T4, Alkaline phosphatase, tissue-nonspecific isozyme (Homo sapiens, UniProt P05186); experiment: TNAP enzyme inhibition by screening hits, dose response, selectivity assay for mouse IAP inhibitor project, biochemical, human TNAP, uHTS hits (AID 488906)
T4 sequence (P05186 whole entry): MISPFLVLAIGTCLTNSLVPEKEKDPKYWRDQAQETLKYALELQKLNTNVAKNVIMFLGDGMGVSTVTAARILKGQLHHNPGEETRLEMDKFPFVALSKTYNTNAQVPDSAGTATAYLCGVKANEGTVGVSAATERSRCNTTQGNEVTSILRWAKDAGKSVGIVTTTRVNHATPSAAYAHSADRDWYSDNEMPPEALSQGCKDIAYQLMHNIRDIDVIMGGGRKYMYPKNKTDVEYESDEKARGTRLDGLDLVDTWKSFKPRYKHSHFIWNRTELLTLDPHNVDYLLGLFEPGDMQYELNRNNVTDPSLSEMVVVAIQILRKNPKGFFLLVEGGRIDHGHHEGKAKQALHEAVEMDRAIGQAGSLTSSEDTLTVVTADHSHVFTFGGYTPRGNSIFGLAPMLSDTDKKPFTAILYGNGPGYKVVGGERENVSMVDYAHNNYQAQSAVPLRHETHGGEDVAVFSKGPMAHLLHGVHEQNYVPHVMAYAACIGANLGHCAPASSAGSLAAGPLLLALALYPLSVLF

T3 sequence (P41145 whole entry): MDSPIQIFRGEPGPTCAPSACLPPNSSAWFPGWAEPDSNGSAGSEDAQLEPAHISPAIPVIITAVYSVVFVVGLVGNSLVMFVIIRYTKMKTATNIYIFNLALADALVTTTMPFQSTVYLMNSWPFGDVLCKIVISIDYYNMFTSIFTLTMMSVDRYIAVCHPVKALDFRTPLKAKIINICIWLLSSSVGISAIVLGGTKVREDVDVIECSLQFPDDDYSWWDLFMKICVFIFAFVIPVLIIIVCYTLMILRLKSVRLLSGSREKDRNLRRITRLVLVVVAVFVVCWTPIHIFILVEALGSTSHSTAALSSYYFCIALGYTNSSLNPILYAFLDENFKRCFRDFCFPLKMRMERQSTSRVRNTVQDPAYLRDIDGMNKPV
Intestinal-type alkaline phosphatase (Homo sapiens, UniProt P09923), sequence (P09923 whole entry): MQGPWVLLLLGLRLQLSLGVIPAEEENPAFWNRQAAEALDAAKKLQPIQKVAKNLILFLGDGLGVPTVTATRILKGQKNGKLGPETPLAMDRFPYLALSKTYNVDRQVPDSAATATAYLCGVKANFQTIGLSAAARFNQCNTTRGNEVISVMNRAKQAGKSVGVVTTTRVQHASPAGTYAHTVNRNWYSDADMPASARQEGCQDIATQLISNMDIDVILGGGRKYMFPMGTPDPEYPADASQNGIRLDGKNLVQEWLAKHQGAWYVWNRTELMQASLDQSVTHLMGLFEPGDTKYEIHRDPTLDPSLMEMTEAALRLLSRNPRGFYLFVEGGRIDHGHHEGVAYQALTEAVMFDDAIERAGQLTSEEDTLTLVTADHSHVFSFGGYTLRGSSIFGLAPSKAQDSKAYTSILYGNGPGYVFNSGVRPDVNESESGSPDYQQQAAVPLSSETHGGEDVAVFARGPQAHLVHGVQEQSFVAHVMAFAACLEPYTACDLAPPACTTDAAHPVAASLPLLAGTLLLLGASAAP
G-protein coupled receptor 55, sequence (Q9Y2T6 whole entry): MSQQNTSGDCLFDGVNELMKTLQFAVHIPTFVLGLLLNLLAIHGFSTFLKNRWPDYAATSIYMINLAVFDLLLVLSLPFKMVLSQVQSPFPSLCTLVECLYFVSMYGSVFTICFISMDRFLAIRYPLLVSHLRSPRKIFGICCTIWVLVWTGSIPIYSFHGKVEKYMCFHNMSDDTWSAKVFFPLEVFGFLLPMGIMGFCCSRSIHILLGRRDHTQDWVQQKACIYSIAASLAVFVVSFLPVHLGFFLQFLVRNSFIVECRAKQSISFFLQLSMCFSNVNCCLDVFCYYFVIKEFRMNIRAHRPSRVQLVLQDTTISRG
Delta-type opioid receptor, sequence (P41143 whole entry): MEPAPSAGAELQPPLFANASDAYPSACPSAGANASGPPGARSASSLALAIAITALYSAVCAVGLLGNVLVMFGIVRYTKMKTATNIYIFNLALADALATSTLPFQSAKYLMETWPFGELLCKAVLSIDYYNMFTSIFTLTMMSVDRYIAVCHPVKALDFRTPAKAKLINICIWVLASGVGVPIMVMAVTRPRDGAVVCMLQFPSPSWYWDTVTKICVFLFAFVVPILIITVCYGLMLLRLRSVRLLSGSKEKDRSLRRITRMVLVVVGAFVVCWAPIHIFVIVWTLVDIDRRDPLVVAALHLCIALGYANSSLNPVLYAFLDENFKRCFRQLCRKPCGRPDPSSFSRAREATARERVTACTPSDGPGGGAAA
Intestinal-type alkaline phosphatase (Mus musculus, UniProt P24822), sequence (P24822 whole entry): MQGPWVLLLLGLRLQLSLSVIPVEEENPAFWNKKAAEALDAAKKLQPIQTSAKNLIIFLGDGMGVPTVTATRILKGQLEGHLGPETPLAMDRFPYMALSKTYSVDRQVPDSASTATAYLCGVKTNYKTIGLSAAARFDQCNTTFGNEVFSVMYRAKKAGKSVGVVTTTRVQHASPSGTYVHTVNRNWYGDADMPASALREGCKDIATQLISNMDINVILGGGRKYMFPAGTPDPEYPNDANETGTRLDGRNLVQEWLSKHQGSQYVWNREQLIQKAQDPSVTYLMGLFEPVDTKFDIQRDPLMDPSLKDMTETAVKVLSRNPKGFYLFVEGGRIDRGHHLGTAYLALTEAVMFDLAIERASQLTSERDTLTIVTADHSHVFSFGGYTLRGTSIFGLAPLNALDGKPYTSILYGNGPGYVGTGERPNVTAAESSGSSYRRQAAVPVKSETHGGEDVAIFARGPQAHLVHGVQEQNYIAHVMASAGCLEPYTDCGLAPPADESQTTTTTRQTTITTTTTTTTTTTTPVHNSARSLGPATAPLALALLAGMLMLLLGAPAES
Tyrosine-protein phosphatase non-receptor type 12, sequence (Q05209 whole entry): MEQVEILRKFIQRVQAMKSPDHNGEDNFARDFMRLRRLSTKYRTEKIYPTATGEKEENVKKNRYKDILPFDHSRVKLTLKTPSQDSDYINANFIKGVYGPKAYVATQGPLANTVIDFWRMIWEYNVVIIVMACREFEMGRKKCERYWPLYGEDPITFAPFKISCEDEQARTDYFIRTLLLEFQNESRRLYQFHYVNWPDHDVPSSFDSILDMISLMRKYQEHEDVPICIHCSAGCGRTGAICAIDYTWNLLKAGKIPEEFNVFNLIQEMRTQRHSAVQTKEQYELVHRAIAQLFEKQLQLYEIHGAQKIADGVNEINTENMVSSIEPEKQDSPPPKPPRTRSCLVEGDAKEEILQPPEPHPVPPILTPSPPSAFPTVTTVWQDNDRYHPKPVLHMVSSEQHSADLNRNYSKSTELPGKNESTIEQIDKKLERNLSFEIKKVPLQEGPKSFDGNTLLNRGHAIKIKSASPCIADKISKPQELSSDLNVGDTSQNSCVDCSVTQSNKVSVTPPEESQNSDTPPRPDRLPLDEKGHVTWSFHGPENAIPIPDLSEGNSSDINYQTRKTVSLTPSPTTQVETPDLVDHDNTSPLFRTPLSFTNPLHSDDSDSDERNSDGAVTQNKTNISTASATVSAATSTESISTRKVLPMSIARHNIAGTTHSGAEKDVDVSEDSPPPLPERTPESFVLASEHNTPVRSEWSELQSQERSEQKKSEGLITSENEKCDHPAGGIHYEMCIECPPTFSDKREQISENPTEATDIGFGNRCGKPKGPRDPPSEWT
Mu-type opioid receptor, sequence (P35372 whole entry): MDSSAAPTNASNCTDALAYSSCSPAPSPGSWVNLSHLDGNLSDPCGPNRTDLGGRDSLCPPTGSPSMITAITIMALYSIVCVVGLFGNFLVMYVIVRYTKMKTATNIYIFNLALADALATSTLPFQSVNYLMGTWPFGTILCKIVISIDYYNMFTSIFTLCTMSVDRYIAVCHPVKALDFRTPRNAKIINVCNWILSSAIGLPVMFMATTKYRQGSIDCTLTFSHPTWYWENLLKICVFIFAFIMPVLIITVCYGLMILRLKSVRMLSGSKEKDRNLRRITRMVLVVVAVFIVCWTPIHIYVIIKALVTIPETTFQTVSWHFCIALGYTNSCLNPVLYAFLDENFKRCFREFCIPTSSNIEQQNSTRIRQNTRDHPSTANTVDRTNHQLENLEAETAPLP

IC50 [1]: > 32 µM (inactive)
Structure (SMILES): Fc1ccc(N2CCN(c3ncnc4c3cnn4Cc3ccc(Cl)cc3Cl)CC2)cc1

IC50 [2]: > 100 µM (inactive)
IC50 [3]: > 100 µM (inactive)
IC50 [4]: > 100 µM (inactive)
IC50 [5]: > 100 µM (inactive)
IC50 [6]: > 100 µM (inactive)
IC50 [7]: > 100 µM (inactive)
Structure (SMILES): O=C(O)COc1ccc(NC(=O)COc2ccc(Cl)cc2)cc1

EC50 [8]: > 32 µM (inactive)
EC50 [9]: 7.2 µM (active)
EC50 [10]: 3.58 µM (active)
EC50 [11]: > 32 µM (inactive)
Structure (SMILES): Fc1cc(F)cc(CSc2nnc(-c3ccccn3)n2Cc2cccs2)c1

IC50 [12]: 4.77 µM (active)
IC50 [14]: > 100 µM (inactive)
IC50 [15]: 77.1 µM (active)
Structure (SMILES): CCOC(=O)C1=C(C)N=c2s/c(=C/c3cccc([N+](=O)[O-])c3O)c(=O)n2C1c1ccc(OC)cc1OC (stereo not given)
CC50 [13]: 39.4 µM (active)
